We go through nine molecules from US10717753B2, “Deuterium-modified brigatinib derivatives, pharmaceutical compositions comprising same, and use thereof” (Chia Tai Tianqing Pharmaceutical Group Co., Ltd., priority 2015, dated 2020).

For data set [1], the system named is human lung cancer cell NCI-H3122. The data set can be described thus: Inhibition of proliferation in vitro, SRB method. The conditions noted are these: NCI-H3122 cells expressing EML4-ALK fusion protein, 72 hours, mean±standard deviation. The data set is classed as cell-based. The procedure: 1.1 Cells: human lung cancer cell line NCl—H3122, expressing EML4-ALK fusion protein.
1.2 Main reagents: sulfonyl rhodamine B, RPMI-1640 liquid medium, dimethyl sulfoxide (DMSO), trichloromethane (chloroform).
1.3 Instruments: Varioskan Flash microplate reader.
1.4 Solution preparation: an appropriate amount of a series of test compounds was taken and dissolved using 5% chloroform+95% DMSO, to form a stock solution of 20 mM, which was stored at −20° C. in aliquots. The positive drug Crizotinib was taken and dissolved using 5% chloroform+95% DMSO, and the stock solution was diluted with fresh medium to a working concentration before use. 95 μl DMSO and 5 μl chloroform were taken, mixed together, and diluted with fresh medium to a working concentration before use.
The tumor cell line used in tests was cultured in RPM11640 medium containing 10% inactivated Hyclone serum or fetal bovine serum, 100 IU/mL penicillin and 100 IU/mL streptomycin, in a 5% CO2 incubator at 37° C. NCl—H3122 cells were inoculated into a 96-well plate at 5000/well. It was ensured that the cells were in logarithmic growth phase during the whole test.
Groups of series of test compounds, negative control and Crizotinib (positive control) were set up in this test. For each test compound group, 6 concentration gradients by 3-fold serial dilution were set, and three wells were for each concentration. For positive control group, 6 concentration gradients by 3-fold serial dilution were set, and three wells were for each concentration. Negative control was 5% chloroform+95% DMSO (the same concentration as that of test compound at 100 nM), and 6 wells were set.
After the cells were treated with the drugs for 72 hours, the culture medium was discarded. A pre-chilled 10% trichloroacetic acid (TCA) solution was added into each well to fix the cells and the plate was placed in a refrigerator at 4° C. to fix. Each well of the plate was washed with deionized water for 5 times to remove trichloroacetic acid solution. After being dried in air, each well was added with SRB solution (4 mg/ml) prepared with 1% acetic acid and then kept for 20 minutes at room temperature. After the liquid was discarded, each well was washed with 1% acetic acid for 5 times to remove uncombined SRB dye, and then dried in air. An appropriate volume of 10 mM Tris-base (trimethylolamine methane) solution at pH 10.5 was added into each well to dissolve the cells. The plate was shaken on a plate shaker for 10 minutes. The absorbance (OD) value was measured at a wavelength of 490 nm in a microplate reader.
According to the OD values measured by microplate reader, an inhibition rate was calculated as the following formula: Survival rate (%)=OD of drug well/OD of control well×100%,
If the survival rate was ≥100%, it was recorded as 100%.
Using Calcusyn software, IC50 was calculated, and mean and standard deviation thereof were calculated, and the data was expressed as: mean±standard deviation.
On the technique in general: Sulforhodamine B stains cellular protein and so reports cell mass.

Data set [2] is described as follows: Stability in monkey liver microsomes in vitro. The data set is classed as in vitro ADME. The note with it: for half-life at 0.01 μmol/L: monkey liver microsomes 0.5 mg/mL protein, NADPH, 37° C., 1 μmol/L test compound; for half-life period compared to the original drug Brigatinib: monkey liver microsomes, statement in words; for Prolonging rates: prolongation of t1/2 in monkey liver microsomes versus Brigatinib. The procedure: 300 μL of a final incubation system contains 30 μL of monkey liver microsomes (protein concentration: 0.5 mg/mL, American BD Company), 30 μL of NADPH+MgCl2, 3 μL of a substrate (a solution of 1 μmol/L test compound in acetonitrile) and 237 μL of PBS buffer solution. The above incubation system was made in duplicate, each of 0.3 mL.
For each sample, an evenly mixed solution of the substrate and enzyme with a total volume of 270 μL was first prepared, and after pre-incubation at 37° C. for 5 min, 30 μL of NADPH+MgCl2 was added and mixed. 40 μL of the reaction solution was taken respectively at 0, 15, 30, 60 and 90 min, and the reaction was stopped by 300 μL of ice-cold acetonitrile containing an internal standard. In addition, three blanks (KB) were set, each of 300 μL (KB1: no NADPH; KB2: no substrate; KB3: no enzyme).
40 μL of the incubation sample was pipetted out, added with 400 μL of ice-cold acetonitrile containing an internal standard, vortexed for 5 min and centrifuged (13000 rpm, 4° C.) for 10 min. 80 μL of the supernatant was pipetted out in a loading plate, and then 80 μL of 50% acetonitrile aqueous solution was added to the plate and mixed. 1 μL of the mixture was pipetted out for LC/MS/MS assay and the chromatogram was recorded.
Background: Liver microsomes are a subcellular fraction often used to study metabolism.

For `COc1cc(N2CCC(N3CCN(C)CC3)CC2)ccc1Nc1ncc(Cl)c(Nc2ccccc2P(C)(C)=O)n1` [Brigatinib, 5-chloro-N^4-[2-(dimethylphosphonyl)phenyl]-N^2-{2-methoxy-4-[4-(4-methylpiperazin-1-yl)piperidin-1-yl]phenyl}pyrimidine-2,4-diamine], 13.3 ± 1.6 nM corresponded to half-maximal inhibition in data set [1] (IC50). Besides, the half-life (in general, the time in which the quantity being followed falls by half) at 0.01 μmol/L in data set [2] amounted to 2.83 h.

As to `[2H]C([2H])([2H])Oc1cc(N2CCC(N3CCN(C)CC3)CC2)ccc1Nc1ncc(Cl)c(Nc2ccccc2P(C)(C)=O)n1` [Compound I-1, (2-((5-chloro-2-((2-[D3]methoxy-4-(4-(4-methylpiperazin-1-yl)piperidin-1-yl)phenyl)amino)pyrimidin-4-yl)amino)phenyl)dimethyl phosphorus oxide], half-maximal inhibition in data set [1] (IC50) was put at 10 ± 1.05 nM. Further, in data set [2], the half-life at 0.01 μmol/L was 3.82 h, the “half-life period compared to the original drug Brigatinib” value is reported as “significantly prolong the half-life period” and the Prolonging rates is listed as 35%.

With `[2H]C([2H])([2H])N1CCN(C2CCN(c3ccc(Nc4ncc(Cl)c(Nc5ccccc5P(C)(C)=O)n4)c(OC)c3)CC2)CC1` [Compound I-2, (2-((5-chloro-2-((2-methoxy-4-(4-(4-[D3]methylpiperazin-1-yl)piperidin-1-yl)phenyl)amino)pyrimidin-4-yl)amino)phenyl)dimethyl phosphorus oxide], the IC50 (as a rule, the midpoint of a concentration-inhibition curve) in data set [1] came to 9.45 ± 1.79 nM. In data set [2], the half-life at 0.01 μmol/L was found to be 3.93 h, the “half-life period compared to the original drug Brigatinib” value was “significantly prolong the half-life period” and the Prolonging rates was 39%.

As to `[2H]C([2H])([2H])Oc1cc(N2CCC(N3CCN(C([2H])([2H])[2H])CC3)CC2)ccc1Nc1ncc(Cl)c(Nc2ccccc2P(C)(C)=O)n1` [Compound I-3, (2-((5-chloro-2-((2-[D3]methoxy-4-(4-(4-[D3]methylpiperazin-1-yl)piperidin-1-yl)phenyl)amino)pyrimidin-4-yl)amino)phenyl)dimethyl phosphorus oxide], in data set [1], it took 12.7 ± 2.37 nM to reach half-maximal inhibition (IC50). Further, in data set [2], the half-life at 0.01 μmol/L is 3.32 h and the Prolonging rates amounted to 17%.

In the case of `[2H]C1([2H])CN(C)CC([2H])([2H])N1C1CCN(c2ccc(Nc3ncc(Cl)c(Nc4ccccc4P(C)(C)=O)n3)c(OC)c2)CC1` [Compound I-4, (2-((5-chloro-2-((2-methoxy-4-(4-(4-methyl[2,2,6,6-D4]piperazin-1-yl)piperidine-1-yl)phenyl)amino)pyrimidin-4-yl)amino)phenyl)dimethyl phosphorus oxide], the IC50 in data set [1] was 11.1 ± 2.07 nM. In data set [2], the half-life at 0.01 μmol/L was 2.93 h and the Prolonging rates is 4%.

On to `[2H]C1([2H])N(C)C([2H])([2H])C([2H])([2H])N(C2CCN(c3ccc(Nc4ncc(Cl)c(Nc5ccccc5P(C)(C)=O)n4)c(OC)c3)CC2)C1([2H])[2H]` [Compound I-6, (2-((5-chloro-2-((2-methoxy-4-(4-(4-methyl[D8]piperazin-1-yl)piperidin-1-yl)phenyl)amino)pyrimidin-4-yl)amino)phenyl)dimethyl phosphorus oxide], for which the IC50 in data set [1] is 9.99 ± 2.31 nM. Besides, in data set [2], the half-life at 0.01 μmol/L came to 3.72 h, the “half-life period compared to the original drug Brigatinib” value is reported as “significantly prolong the half-life period” and the Prolonging rates was 31%.

`[2H]C([2H])([2H])N1C([2H])([2H])CN(C2CCN(c3ccc(Nc4ncc(Cl)c(Nc5ccccc5P(C)(C)=O)n4)c(OC)c3)CC2)CC1([2H])[2H]` [Compound I-7] returned an IC50 in data set [1] of 9.89 ± 0.76 nM. Also, in data set [2], the half-life at 0.01 μmol/L came out at 3.78 h, the “half-life period compared to the original drug Brigatinib” value is listed as “significantly prolong the half-life period” and the Prolonging rates stood at 34%.

In data set [1], `[2H]C1([2H])CN(C2CCN(c3ccc(Nc4ncc(Cl)c(Nc5ccccc5P(C)(C)=O)n4)c(OC)c3)CC2)CC([2H])([2H])N1C` [Compound I-9, (2-((5-chloro-2-((2-methoxy-4-(4-(4-methyl[3,3,5,5-D4]piperazin-1-yl)piperidin-1-yl)phenyl)amino)pyrimidin-4-yl)amino)phenyl)dimethyl phosphorus oxide] came in with an IC50 of 7.65 ± 1.07 nM. In addition, in data set [2], the half-life at 0.01 μmol/L worked out at 3.57 h and the Prolonging rates came to 26%.

Consider `C[C@@H](Oc1cc(-c2cnn(C3CCNCC3)c2)cnc1N)c1c(Cl)ccc(F)c1Cl` [Crizotinib, reference compound], for which, in data set [1], the IC50 is 11.1 ± 0.69 nM.
